We go through 31 compounds from patent publication US20050209278A1, “Piperidinyl- and piperazinyl-sulfonylmethyl hydroxamic acids and their use as protease inhibitors” (priority 2002, published 2005).

Where “and” joins values, the source holds several entries; their conditions need not be identical. Equal values may be shown once.

One assay addresses T1, MMP-13 (Homo sapiens, UniProt P45452).
T1 construct: made in house; host or cells: baculovirus / insect cells
Kind of assay: In vitro MMP inhibition, Ki determination (fluorogenic substrate II). To be noted: value outside parentheses; read-out: MMP-13 Ki. Format: biochemical. In a few lines:
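Ki determined with human recombinant MMP-13, baculovirus-expressed as proenzyme and activated with APMA. Fluorogenic MCA/Dpa substrate II at 4 μM (at or below Km) with low enzyme in Tris buffer pH 7.5 with CaCl2. Incubation was 1 h at room temperature, with fluorescence read at 330/420 nm.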

A further assay deals with T2, MMP-2 (Homo sapiens, UniProt P08253).
T2 construct: made in house; host or cells: MMP-2-transfected p2AHT2 cells
T2 sequence (P08253 110-660): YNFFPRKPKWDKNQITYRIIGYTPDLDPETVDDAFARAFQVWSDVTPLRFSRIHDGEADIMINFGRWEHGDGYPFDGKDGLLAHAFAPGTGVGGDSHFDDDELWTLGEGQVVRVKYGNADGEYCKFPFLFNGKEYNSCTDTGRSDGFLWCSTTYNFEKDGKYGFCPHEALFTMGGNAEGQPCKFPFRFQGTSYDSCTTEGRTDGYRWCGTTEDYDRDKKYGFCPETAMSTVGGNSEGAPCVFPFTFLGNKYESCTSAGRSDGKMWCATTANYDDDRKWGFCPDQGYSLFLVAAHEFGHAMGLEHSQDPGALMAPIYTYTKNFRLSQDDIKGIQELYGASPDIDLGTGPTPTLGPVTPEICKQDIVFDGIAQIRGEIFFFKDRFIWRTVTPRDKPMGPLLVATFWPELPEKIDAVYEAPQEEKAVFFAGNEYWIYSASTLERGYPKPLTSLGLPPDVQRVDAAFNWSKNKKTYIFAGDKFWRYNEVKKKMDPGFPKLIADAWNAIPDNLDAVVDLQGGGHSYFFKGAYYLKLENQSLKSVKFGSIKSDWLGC
Described as above. Format: biochemical. The settings on record: value outside parentheses; read-out: MMP-2 Ki.

Broadly, the Ki is the equilibrium dissociation constant of an inhibitor or competing ligand from its target. `O=C(NO)C1(S(=O)(=O)N2CCC(c3ccc(OCC(F)(F)F)cc3)CC2)CCOCC1` [Example 357]: the results for the inhibition constant Ki on MMP-13 and at MMP-2 were 1.2 nM and 0.919 nM, respectively.
The corresponding values for `O=C(NO)C1(S(=O)(=O)N2CCN(c3ccc(-c4cccc(OC(F)(F)F)c4)cn3)CC2)CCOCC1` [Example 319] are 4.62 nM and 33.1 nM.
The corresponding values for `O=C(NO)C1(S(=O)(=O)N2CCN(c3ncc(-c4ccc([N+](=O)[O-])cc4)s3)CC2)CCOCC1` [Example 363] are 0.076 nM and 0.056 nM.
The corresponding values for `CCCCc1ccc(-c2cnc(N3CCN(S(=O)(=O)C4(C(=O)NO)CCOCC4)CC3)s2)cc1` [Example 379] are 0.167 nM and 0.14 nM.
In the case of `O=C(NO)C1(S(=O)(=O)N2CCN(c3ccc(-c4ccccc4F)cn3)CC2)CCOCC1` [Example 317], the inhibition constant Ki is 0.71 nM at MMP-13 and 0.55 nM on MMP-2.
Regarding `CCc1ccc(C2CCN(S(=O)(=O)C3(C(=O)NO)CCN(CCOC)CC3)CC2)s1` [Example 314], the inhibitory constant (Ki) stood at 19.6 nM at MMP-13 and 9.1 nM on MMP-2.
The corresponding values for `CCCCCc1cccc(N2CCN(S(=O)(=O)C3(C(=O)NO)CCOCC3)CC2)c1` [Example 356] are 35.3 nM and 65.7 nM.
The corresponding values for `O=C(NO)C1(S(=O)(=O)N2CCN(c3ccc(Br)cn3)CC2)CCOCC1` [Example 331] are 0.193 nM and 0.103 nM.
The corresponding values for `CCCCCc1ccc(-c2cnc(N3CCN(S(=O)(=O)C4(C(=O)NO)CCOCC4)CC3)s2)cc1` [Example 380] are 0.651 nM and 1.39 nM.
For the compound `O=C(NO)C1(S(=O)(=O)N2CCN(c3ccc(CCC(F)(F)C(F)(F)F)cc3)CC2)CCN(C2CC2)CC1` [Example 335], the figures for the Ki at MMP-13 and at MMP-2 were 0.489 nM and 0.618 nM, respectively.
The corresponding values for `O=C(NO)C1(S(=O)(=O)N2CCC(c3ccc(-c4cccs4)cn3)CC2)CCOCC1` [Example 394] are 1.73 nM and 1.8 nM.
The corresponding values for `O=C(NO)C1(S(=O)(=O)N2CCC(c3ccc(CCC(F)(F)C(F)(F)F)cn3)CC2)CCOCC1` [Example 340] are 0.107 nM and 0.26 nM.
Consider `O=C(NO)C1(S(=O)(=O)N2CCC(c3ccc(OCC(F)(F)C(F)F)cc3)CC2)CCN(CCN2CCOCC2)CC1` [Example 385], for which the inhibitory constant (Ki) stood at 0.378 nM on MMP-13 and 0.573 nM on MMP-2.
`O=C(NO)C1(S(=O)(=O)N2CCN(c3ncc(-c4ccc(C(F)(F)F)cc4)s3)CC2)CCOCC1` [Example 346]: the inhibition constant (Ki) at MMP-13 turned out to be 0.167 nM; at MMP-2, 0.215 nM.
With `O=C(NO)C1(S(=O)(=O)N2CCN(c3ncc(/C=C/c4ccccc4)s3)CC2)CCOCC1` [Example 361], the inhibitory constant (Ki) was 1.06 nM and 1.07 nM on MMP-13; 1.37 nM and 1.39 nM at MMP-2.
On to `O=C(NO)C1(S(=O)(=O)N2CCN(c3ccc(CCCC(F)(F)F)c(F)c3)CC2)CCOCC1` [Example 389], for which the Ki on MMP-13 came out at 0.47 nM; at MMP-2, 0.38 nM.
The corresponding values for `O=C(NO)C1(S(=O)(=O)N2CCN(c3ncc(-c4ccc5c(c4)OCO5)s3)CC2)CCOCC1` [Example 362] are 0.408 nM and 0.333 nM.
For `O=C(NO)C1(S(=O)(=O)N2CCN(c3ccc(CCCC(F)(F)F)cc3)CC2)CCOCC1` [Example 320], in that order: 0.501 nM and 0.842 nM.
The corresponding values for `O=C(NO)C1(S(=O)(=O)N2CCN(c3ncc(-c4ccc(F)cc4)s3)CC2)CCOCC1` [Example 345] are 0.236 nM and 0.169 nM.
With `O=C(NO)C1(S(=O)(=O)N2CCC(c3ccc(CCCC(F)(F)F)cc3)CC2)CCOCC1` [Example 353], the figures for the Ki on MMP-13 and on MMP-2 were 0.378 nM and 1.29 nM, respectively.
The corresponding values for `O=C(NO)C1(S(=O)(=O)N2CCN(c3ncc(-c4ccc(OC(F)(F)F)cc4)s3)CC2)CCOCC1` [Example 364] are 0.106 nM and 0.187 nM.
For `O=C(NO)C1(S(=O)(=O)N2CCC(COCC(F)(F)C(F)(F)F)CC2)CCOCC1` [Example 376], in that order: 31.2 nM and 27.1 nM.
With `O=C(O)c1ccc(N2CCN(S(=O)(=O)C3(C(=O)NO)CCOCC3)CC2)cc1` [Example 352], the inhibitory constant (Ki) came to 3640 nM on MMP-13 and 2130 nM on MMP-2.
As for `O=C(NO)C1(S(=O)(=O)N2CCN(c3ncc(-c4cccnc4)s3)CC2)CCOCC1` [Example 382], the inhibitory constant (Ki) at MMP-13 is 0.647 nM; at MMP-2 it was 0.68 nM.
For `O=C(NO)C1(S(=O)(=O)N2CCN(c3ncc(-c4ccc(Cl)cc4)s3)CC2)CCOCC1` [Example 343], the Ki at MMP-13 stood at 0.167 nM; at MMP-2, 0.113 nM.
The corresponding values for `COc1ccc(-c2cnc(N3CCN(S(=O)(=O)C4(C(=O)NO)CCOCC4)CC3)s2)cc1OC` [Example 371] are 1.35 nM and 4.14 nM.
The corresponding values for `O=C(NO)C1(S(=O)(=O)N2CCC(c3ccc(CCC(F)(F)F)cn3)CC2)CCOCC1` [Example 367] are 0.835 nM and 0.978 nM.
For `O=C(NO)C1(S(=O)(=O)N2CCN(c3cnn(-c4ccccc4)c(=O)c3Cl)CC2)CCOCC1` [Example 329], in that order: over 10000 nM and over 10000 nM.
On to `CCCCOc1cccc(N2CCN(S(=O)(=O)C3(C(=O)NO)CCOCC3)CC2)c1` [Example 354], for which the Ki was determined as 165 nM on MMP-13 and 89.4 nM at MMP-2.
The corresponding values for `O=C(NO)C1(S(=O)(=O)N2CCN(c3ccc(OCC(F)(F)C(F)F)cc3)CC2)CCOCC1` [Example 336] are 0.522 nM and 0.606 nM.
The corresponding values for `O=C(NO)C1(S(=O)(=O)N2CCN(c3ccc(OCC(F)(F)C(F)F)cc3)CC2)CCOCC1` [Example 326] are 0.31 nM and 0.34 nM.
